The test system of one experiment is E. coli ATCC 352 18. Briefly: Anti-bacterial activity, sensitivity disc zone of inhibition. Type of experiment: cell-based, Escherichia coli. As to conditions: for zone of inhibition: E. coli. How it is done: (§1) The material obtained in Example 1 was screened for antibiotic activity against Staphylococcus aureus, Pseudomonas aeroginosa, Escherichia coli, and Klebsiella pneumoniae. • Solvent: Buffer Phosphate 0.1 N, pH=8.0 • Antibiotic: LMSV-6 (Pure, Securolide) • Medium coat: 2 mL/100 mL • Inoculum: 4 mL/Petri Dish Preparation of Culture Medium: [table] Microorganisms used were standardized by American Type Culture Collection (ATCC), used in first generation: • E. coli ATCC 352 18, Lot 202602, Exp. 05/2000 (19-258) • *Kleb. Klebsiela pneumoniae, ATCC 13882, Lot 202 174, Exp 02/2000 (19-152) • *Ps. A Pseudomona aeroginosa ATCC 27853, Lot 202992, Exp 08/2000 (19-060) • *St. A Staphyloccus aureus ATCC 12598, Lot 202564, Exp 05/2000 (19-137) • **Str. P Streptoccus pyogenes, ATCC 2 1547, Lote 202691, Exp 06/2000 (19-190) • *=Atmospheric oxygen, Temp=35±2° C. • **=Atmopheric CO2, Temp=35±2° C.

Experiment [1] relates to Klebsiela pneumoniae, ATCC 13882. The experiment is described as above. Type of experiment: cell-based, Klebsiella pneumoniae. As to conditions: for zone of inhibition: Kleb. How it is done:
as §1

Experiment [2] concerns Pseudomona aeroginosa ATCC 27853. The description is as above. Type of experiment: cell-based, Pseudomonas aeroginosa. As to conditions: for zone of inhibition: Ps. A. How it is done:
as §1

The subject of experiment [3] is Staphyloccus aureus ATCC 12598. The description is as above. Type of experiment: cell-based, Staphylococcus aureus. Conditions: for zone of inhibition: St. a. How it is done:
as §1

Experiment [4] deals with Staphylococcus aureus, Pseudomonas aeroginosa, Escherichia coli, and Klebsiella pneumoniae. The experiment is described as follows: Anti-bacterial activity of LMSV-6 dilutions (text summary, whole panel). In kind it is cell-based. As to conditions: dilutions 10, 20, 30 and 40 microliters/10 mL of LMSV-6 in Tween 60-2%. How it is done:
The material obtained in Example 1 was screened for antibiotic activity against Staphylococcus aureus, Pseudomonas aeroginosa, Escherichia coli, and Klebsiella pneumoniae.
• Solvent: Buffer Phosphate 0.1 N, pH=8.0 • Antibiotic: LMSV-6 (Pure, Securolide) • Medium coat: 2 mL/100 mL • Inoculum: 4 mL/Petri Dish Preparation of Culture Medium: […]

The test system of a further experiment is Sarcina lutea. Briefly: Minimum Inhibitory Concentration, poured in plate, sensitivity disc. Type of experiment: cell-based. How it is done: • Methodology: Poured in plate, medium Mueler Hinton pH=8 • Buffer pH=8 for ceftriaxone pattern dilution • Tween 20 at 2% for LMSV-6 (Securolide) dilution • Microorganism: Sarcina lutea • Sample(s): LMSV-6 (16.0 microliters/100 mL and 10 microliter applied to sensitivity disc). Methodology: Poured in plate, medium Mueler Hinton p&8 • Buffer pH=8 for ceftriaxone pattern dilution • Tween 20 at 2% for LMSV-6 (Securolide) dilution • Used Microorganism: Sarcina lutea • Sample(S): LMSV-6 (10 microliters/mL and 20 microliter applied to sensitivity disc) • Control Pattern (P): Ceftriaxone (disc with 10 mcg) Results: […]

A further experiment concerns bacterial infection. The experiment is described as follows: In vivo treatment of bacterial infection, rats infected in surgery. Conditions: doses calculated by comparison with ceftriaxone.
Experiment [5] deals with HEP-2 cells (laringe carcinoma). Briefly: Cytotoxic assay (MTT) in HEP-2 cells. Conditions: Homo sapiens, HEp-2, HEP-2 cells. In kind it is cell-based. The text has this: (§2) There are a large number of biological assays that require the measurement of surviving or proliferating mammalian cells. This can be achieved by different methods, e.g. counting cells that exclude or include a dye; measuring released ^51Cr labeled protein after cell lysis; and measuring incorporation of radiactive nucleotides radiactive [^3H]thymidine) or [^125I]iododeoxyuridine) during cells proliferation.
(§3) Viable cells can be measured by using any of several staining methods, but a more accurate method is the multiwell scanning spectrophotometers (ELISA readers) which can measure large number of samples with a high degree of precision.
(§4) A colorimetric assay to detect living cells, utilizing a colorless substrate that is modified to a colored product by any living cell, but not by dead cells or tissue culture medium, was used. […] The Formazan concentration in a gradient of Securolide concentrations was measured by multiwells scanning spectrophotometer (ELISA reader). Data analysis was then used to establish the Inhibitory concentration fifty (IC50) which is a quantitative parameter of antineoplastic activity. […]
(§5) Assessment of cell growth inhibition was determined according to the methods of Skehan et aL, J. Nat. […] Optical density was measured at 570 nm. […]

The subject of experiment [6] is HELA cells (cervix carcinoma). Briefly: Cytotoxic assay (MTT) in HELA cells. In kind it is cell-based. As to conditions: Homo sapiens.
Source text: as §2, §3, §4, §5

A further experiment has as its system H. pylori. Briefly: Patient endoscopy before and after treatment, H. pylori. Type of experiment: in vivo, human. Conditions: patients. The text has this:
There are several methods used clinically to determine whether Helicobacter pylori is present in a human subject. These are employed for initial diagnosis of infection prior to treatment, as well as for determining the success of treatment in eradicating the organism from the patient. Endoscopy of the patient provides samples of tissue which can be cultured in a microaerophilic environment to diagnose H. pylori infection. Alternatively, the sample can be examined histologically by employing one of a number of stains such as Giemsa or hematoxylin-eosin. An urea test which takes advantage of the production of urease by H. pylori, can also be applied. This test relies on the formation of ammonia from the urea hydrolysis, which results in an observable change in pH, that is an indication of the […] of H. pylori.

The test system of another experiment is Candida albicans. The experiment is described as follows: Candida albicans MIC / minimal fungicidal concentration assays. In kind it is cell-based. Conditions: concomitant assays. How it is done:
Candida albicans cells were prepared as indicated in the J. Antimicrobial Chemotherapy 38, 579-587, and were washed 3 times with a 0.1 M phosphate solution and used immediately to determine the minimal inhibitory concentration (MIC). The MICs were determined by modification of a microtitre plate according to the standard method of the laboratory clinical standards of the Comite National. RPMI-1640, and L-glutamine buffered at pH 7 with a 0.15 M solution of MOPS (3-[N-morpholino]propane sulfonic acid). Candida albicans cells (1.5×10^3 cells/ml) were added to the wells of a 96-well plate containing RPMI-1640 and dilutions of antifungal agents. The results were read 48 hours after incubation at 35° C. and the MIC or the minimal inhibitory concentration which inhibited the growth of the Candida albicans cells was determined. After reading the MIC at 48 hours, the plates were shaken and 10 μl of well aliquot was removed from the wells which was placed on rectangular disks containing dextrose sugar. The plates were incubated for 48 hours at 35° C. and the minimal fungicidal concentration and the concentration of the antifungal agent at which there were no number of colony forming units.

In experiment [7] the test system is anaerobic gram negative organisms associated with gingivitis. Briefly: Topical application to affected gingiva (gingivitis). Type of experiment: in vivo. As to conditions: topically applied to the affected gingiva.
A further experiment concerns Actinomyces viscosus. Briefly: MIC, procedure of Walker et al. Type of experiment: cell-based. The text has this: (§6) The minimum inhibitory concentration (MIC) needed to kill Bacteroides assaccharolyticus (Forsyth strain), determined according to the procedure of Walker et al (Antimicrobial and Chemotherapy, Vol. 16, p. 452-457, (1979), is between 6 to 60 micrograms per ml. The MIC value for B. gingivalis is 6 micrograms per ml. The MIC value for B. gracilis and Fusobacterium, other gram negative organisms is about 25 for each; and the MIC value for the gram positive organism Actinomyces viscosus is 60 for the aerobic strain and 60 for the anaerobic strain.

A further experiment has as its system B. gingivalis. Briefly: MIC, procedure of Walker et al. Type of experiment: cell-based. Conditions: Porphyromonas gingivalis.
Source text: as §6

In another experiment the test system is B. gracilis. The experiment is described as follows: MIC, procedure of Walker et al. In kind it is cell-based.
Source text: as §6

Experiment [8] relates to Bacteroides assaccharolyticus (Forsyth strain). The experiment is described as follows: MIC, procedure of Walker et al. Type of experiment: cell-based. Conditions: read-out: minimum inhibitory concentration (MIC).
Source text: as §6

Another experiment deals with Fusobacterium. Briefly: MIC, procedure of Walker et al. In kind it is cell-based.
Source text: as §6

The mark [9] stands for this setting: disc of sensitivity 50 micrograms.
Where [10] appears, read: disc of sensitivity 5 micrograms.

Values after ≈ are worked out from the molar mass of the structure shown.

With `C[C@@H]1O[C@@H]1P(=O)(O)O` [osf, Fosfomicina, reference compound], the zone of inhibition in the experiment with E. coli ATCC 352 18 (setting [9]) was 10 mm; in experiment [1] (setting [9]), 22 mm; in experiment [2] (setting [9]), 6 mm; in experiment [3] (setting [9]), 18 mm.

As for `C=C1CCOC1=O` [LMSV-6], the zone of inhibition is listed as 30 (mm) in the experiment on E. coli ATCC 352 18 (LMSV-6 (puro)), 40 mm in experiment [1] (LMSV-6 (puro)), 30 mm in experiment [2] (LMSV-6 (puro)) and 30 mm in experiment [3] (LMSV-6 (puro)). Also, the “inhibition of growth” value is “inhibits growth” with E. coli ATCC 352 18 (Escherichia coli, 5 microliters); “inhibits growth” in experiment [1] (Klebsiela pneumonae, 5 microliters); “inhibits growth” in [2] (Pseudomonas aeroginosa, 5 microliters); “inhibits growth” in experiment [3] (Staphyloccus aureus, 5 microliters). The “inhibition of bacterial growth” value in [4] was “did not exhibit inhibition of bacterial growth”. Moreover, the “inhibition (zone)” value in the experiment with Sarcina lutea (0.2 microliters of LMSV-6) is recorded as 3.3 mm. The “ZONE OF INHIBITION” value in the experiment on Sarcina lutea (applied volume to disc 1.6 microliters) is recorded as 20.0 mm; in the experiment on Sarcina lutea (applied volume to disc 5 microliters), 42.0 mm. Also, in the experiment on Sarcina lutea (approximate), the “Minimum Inhibitory Concentration (MIC)” value was ~0.2 µL. The “treatment of bacterial infection” value in the experiment on bacterial infection is recorded as “successfully treated”. Moreover, the IC50 (commonly the concentration at which inhibition is half-maximal) in experiment [5] (population of 10^5 Cells/mL) was 10.4 µg/mL (≈ 106 µM); in experiment [5] (population of 10^6 Cells/mL) it was 37.4 µg/mL (≈ 381 µM); in experiment [6] (population of 10^5 Cells/mL), 7.37 µg/mL (≈ 75.1 µM); in experiment [6] (population of 10^6 Cells/mL) it was 27.3 µg/mL (≈ 278 µM). The “H. pylori by endoscopy before and after treatment” value in the experiment with H. pylori is given as “decrease or absence of H. pylori”. Moreover, the “activity against Candida albicans” value in the experiment on Candida albicans is recorded as “high activity”. The “effect against gingivitis organisms” value in experiment [7] is on record as “selectively effective”. Also, the MIC value was 60 µg/mL (≈ 612 µM) in the experiment on Actinomyces viscosus (aerobic strain), 60 µg/mL (≈ 612 µM) against Actinomyces viscosus (anaerobic strain), “about 25” in the experiment with B. gracilis and “about 25” with Fusobacterium. For the same compound, the MIC in the experiment on B. gingivalis is 6 µg/mL (≈ 61.2 µM); in [8] it was 6 to 60 µg/mL (≈ 61.2 to 612 µM).

On to `O=C(O)c1cn(C2CC2)c2cc(N3CCNCC3)c(F)cc2c1=O` [Ciprof, Ciprofloxacina, reference compound], for which the zone of inhibition in the experiment with E. coli ATCC 352 18 (setting [10]) is reported as 28 mm; in experiment [1] (setting [10]), 26 mm; in [2] (setting [10]), 12 mm; in experiment [3] (setting [10]), 20 mm.

The record behind these values is patent publication US6900242B2, “Lactone formulations and method of use” (Magnachem International Laboratories, Inc., priority 2001, dated 2005).
